From patent publication US20210137961A1, “Compositions and Methods for Treating Dry Eye Diseases” (priority 2017, published 2021)
Values after ≈ are worked out from the molar mass of the structure shown.

How the values were obtained:
phospholipase = assay: Phospholipase inhibition in other cell lines; assay type: cell-based; details: for IC50: read-out: IC50 for phospholipase inhibition, other cell lines
[1] = system: Haemophilus parainfluenzae; assay: MIC against Haemophilus parainfluenzae; assay type: cell-based; details: N 11
TNFα = assay: LPS-induced TNFα production in PMA-differentiated U937 cells (ELISA); assay type: cell-based, human; details: for inhibition of TNFα production (in words): solithromycin and telithromycin at 100 μM, clarithromycin at 333 μM
Method: (§1) EXAMPLE. […] Cells. The human monocytic cell line U937 was obtained from the American Type Culture Collection (ATCC, Rockville, Md.). PBMCs from COPD patients were obtained from Brompton hospital and separated by AccuSPIN (Sigma-Aldrich). […] U937 cells were differentiated into adherent macrophage-like morphology by exposure to PMA (50 ng/ml) for 48 h in complete growth medium. Cell viability was assessed microscopically by trypan blue staining. Cell toxicity was determined by MTT assay as needed. This study was approved by the ethics committee of the Royal Brompton Hospitals, and all subjects gave written informed consent. Cytokine ELISA. TNFα and IL-8 concentrations in the supernatant of cell cultures were determined by sandwich ELISA according to the manufacturer's instructions (R&D Systems Europe, Abingdon, UK). Statistical analysis. The results were expressed as the mean±SEM. Comparisons of data in two groups were performed using the Student's t test or the Wilcoxon signed rank test. Multiple comparisons were made by one-way ANOVA with post hoc test (Dunnett's) as appropriate. The difference was considered significant at p<0.05. […] Anti-inflammatory effects of solithromycin in U937 cells.

MMP9 = MMP9 activity in PMA-stimulated U937 cells (gelatin zymography); assay type: cell-based, human; details: PMA stimulation
Method: EXAMPLE. […] Cells. The human monocytic cell line U937 was obtained from the American Type Culture Collection (ATCC, Rockville, Md.). PBMCs from COPD patients were obtained from Brompton hospital and separated by AccuSPIN (Sigma-Aldrich). […] U937 cells were differentiated into adherent macrophage-like morphology by exposure to PMA (50 ng/ml) for 48 h in complete growth medium. Cell viability was assessed microscopically by trypan blue staining. Cell toxicity was determined by MTT assay as needed. This study was approved by the ethics committee of the Royal Brompton Hospitals, and all subjects gave written informed consent. Zymography. MMP9 enzyme activity was measured by gelatin zymography. […] After electrophoresis, gels were incubated and rinsed with Novex® zymogram renaturing buffer (Invitrogen) for 30 min at room temperature. The gels were then rinsed in Novex® zymogram developing buffer (Invitrogen) for 30 min at room temperature prior to overnight incubation in the developing buffer at 37° C. After incubation, the gels were stained using a Colloidal Blue Staining Kit (Invitrogen) to visualize the zymogen bands. Statistical analysis. The results were expressed as the mean±SEM. Comparisons of data in two groups were performed using the Student's t test or the Wilcoxon signed rank test. Multiple comparisons were made by one-way ANOVA with post hoc test (Dunnett's) as appropriate. The difference was considered significant at p<0.05.

Mycoplasma hominis = assay: MIC against Mycoplasma hominis; assay type: cell-based; details: N 13
CXCL8 = assay: LPS-induced CXCL8 (IL-8) production in PMA-differentiated U937 cells (ELISA); assay type: cell-based, human; details: for inhibition of CXCL8 (IL-8) production (in words): solithromycin and telithromycin at 100 μM, clarithromycin at 333 μM
Method: as §1

[2] = system: Immortalized human meibomian gland epithelial cells (HMGECs); assay: HMGEC lysosome and neutral lipid accumulation, differentiation and proliferation; assay type: cell-based; details: meibomian gland epithelial cells
Method: EXAMPLE. Immortalized human meibomian gland epithelial cells (HMGECs) are cultured in the presence of vehicle or test compound, such as Soli (2, 10, or 20 μg/ml) for 1 to 7 days under proliferating (keratinocyte serum-free medium; KSFM) or differentiating (DMEM/F12 plus 10% fetal bovine serum) conditions. A positive control (epidermal growth factor and bovine pituitary extract for proliferation; Azi for differentiation) and a negative control (media only) are included with the experiments. Additional details are described in JAMA Ophthalmol 132(2): 226-228 (Feb. 1, 2014) and Current Eye Research, 1-6 (2017), each of which is incorporated herein by reference.
HMGECs are evaluated for cell number, neutral lipid content (LipidTox) and lysosome accumulation (LysoTracker). […] Strong lysosomal effects are observed with the 10 μg/ml dose of Soli (relative stimulation=30), on the first day of dosing, and those effects are statistically different (p<0.01) from the control group (relative stimulation=13). In contrast, the 10 μg/m1Azi dose is not statistically different from the control group (relative stimulation=18) until day 3. […] Compounds described herein, such a Soli, affect lysosome and lipid accumulation and differentiation of HMGECs. The effect of Soli on lysosome appearance is faster than that of Azi.

P. acnes = assay: MIC against P. acnes; assay type: cell-based; details: for MIC50 / MIC90: Cutibacterium acnes

In the case of `CC[C@H]1OC(=O)[C@H](C)[C@@H](O[C@H]2C[C@@](C)(OC)[C@@H](O)[C@H](C)O2)[C@H](C)[C@@H](O[C@@H]2O[C@H](C)C[C@H](N(C)C)[C@H]2O)[C@](C)(O)C[C@@H](C)CN(C)[C@H](C)[C@@H](O)[C@]1(C)O` [Azithromycin, azithromycin], the “reversibility of phospholipase inhibition” value (phospholipase; after dosing is stopped) is reported as “remains unchanged for several days after dosing is stopped”, the IC50 (phospholipase) is reported as 300 µM and the “MIC Range” value [1] is reported as 0.5-2^ μg/mL. For the same compound, the “inhibition of TNFα production (in words)” value (TNFα) was “did not inhibit”, the “inhibitory effects on MMP9 activity, lower than solithromycin” value (MMP9) was 10 fold and the “MIC Range” value (Mycoplasma hominis) was 0.5-4^ μg/mL. For the same compound, the “inhibition of CXCL8 (IL-8) production (in words)” value (“inhibition of CXCL8” below) (CXCL8) was “did not inhibit”.

In the case of `CC[C@H]1OC(=O)[C@H](C)[C@@H](O[C@H]2C[C@@](C)(OC)[C@@H](O)[C@H](C)O2)[C@H](C)[C@@H](O[C@@H]2O[C@H](C)C[C@H](N(C)C)[C@H]2O)[C@](C)(OC)C[C@@H](C)C(=O)[C@H](C)[C@@H](O)[C@]1(C)O` [Clarithromycin, clarithromycin], the IC50 (TNFα; Homo sapiens, U-937, LPS, PMA-differentiated U937 cells, read-out: IC50 on TNFα release) is reported as 426 ± 63.9 µM, the “inhibition of TNFα production (in words)” value (TNFα) is reported as “modest effects” and the “inhibitory effects on MMP9 activity, lower than solithromycin” value (MMP9) is reported as 10 fold. For the same compound, the “meibomian gland differentiation (in words)” value [2] was “do not cause clinically significant meibomian gland differentiation”, the IC50 (CXCL8; Homo sapiens, U-937, LPS, PMA-differentiated U937 cells, read-out: IC50 on CXCL8 release) was 506 ± 44 µM and the “inhibition of CXCL8” value (CXCL8) was “modest effects”.

In the case of `CCCCCCCCCC(=O)N[C@@H](Cc1c[nH]c2ccccc12)C(=O)N[C@H](CC(N)=O)C(=O)N[C@@H](CC(=O)O)C(=O)N[C@@H]1C(=O)NCC(=O)N[C@@H](CCCN)C(=O)N[C@@H](CC(=O)O)C(=O)N[C@H](C)C(=O)N[C@@H](CC(=O)O)C(=O)NCC(=O)N[C@H](CO)C(=O)N[C@@H]([C@H](C)CC(=O)O)C(=O)N[C@@H](CC(=O)c2ccccc2N)C(=O)O[C@@H]1C` [Daptomycin], the MIC50 (P. acnes; P. acnes) is reported as 2 µg/mL (≈ 1.23 µM), the MIC90 (P. acnes; P. acnes (51 species)) is reported as 4 µg/mL (≈ 2.47 µM) and the “MIC Range” value (P. acnes; P. acnes (51 species)) is reported as 0.5 to 8 µg/mL.

In the case of `CC[C@H]1OC(=O)[C@H](C)[C@@H](O[C@H]2C[C@@](C)(OC)[C@@H](O)[C@H](C)O2)[C@H](C)[C@@H](O[C@@H]2O[C@H](C)C[C@H](N(C)C)[C@H]2O)[C@](C)(O)C[C@@H](C)C(=O)[C@H](C)[C@@H](O)[C@]1(C)O` [Erythromycin], the IC50 (phospholipase) is reported as over 400 µM, the “inhibition of TNFα production (in words)” value (TNFα) is reported as “did not inhibit” and the “effect on MMP9 activity (in words)” value (MMP9) is reported as “no effect”. For the same compound, the “meibomian gland differentiation (in words)” value [2] was “do not cause clinically significant meibomian gland differentiation” and the “inhibition of CXCL8” value (CXCL8) was “did not inhibit”.

With `CC[C@H]1OC(=O)[C@H](C)C(=O)[C@H](C)[C@@H](O[C@@H]2O[C@H](C)C[C@H](N(C)C)[C@H]2O)[C@](C)(OC)C[C@@H](C)C(=O)[C@H](C)[C@H]2N(CCCCn3cnc(-c4cccnc4)c3)C(=O)O[C@]12C` [Telithromycin] the “inhibition of TNFα production (in words)” value (TNFα) was “did not inhibit”, the “meibomian gland differentiation (in words)” value [2] was “do not cause clinically significant meibomian gland differentiation” and the “inhibition of CXCL8” value (CXCL8) was “did not inhibit”.

In the case of `CN[C@H](CC(C)C)C(=O)N[C@H]1C(=O)N[C@@H](CC(N)=O)C(=O)N[C@H]2C(=O)N[C@H]3C(=O)N[C@H](C(=O)N[C@H](C(=O)O)c4cc(O)cc(O)c4-c4cc3ccc4O)[C@H](O)c3ccc(c(Cl)c3)Oc3cc2cc(c3O[C@@H]2O[C@H](CO)[C@@H](O)[C@H](O)[C@H]2O[C@H]2C[C@](C)(N)[C@H](O)[C@H](C)O2)Oc2ccc(cc2Cl)[C@H]1O` [Vancomycin], the MIC50 (P. acnes; P. acnes) is reported as 1 µg/mL (≈ 0.69 µM), the MIC90 (P. acnes; P. acnes (51 species)) is reported as 1 µg/mL (≈ 0.69 µM) and the “MIC Range” value (P. acnes; P. acnes (51 species)) is reported as 0.12 to 1 µg/mL.

With `CC[C@H]1OC(=O)[C@H](C)C(=O)[C@H](C)[C@@H](O[C@@H]2O[C@H](C)C[C@H](N(C)C)[C@H]2O)[C@](C)(OC/C=C/c2cnc3ccccc3c2)C[C@@H](C)C(=O)[C@H](C)[C@H]2NC(=O)O[C@@]21C` [cethromycin] the “meibomian gland differentiation (in words)” value [2] was “do not cause clinically significant meibomian gland differentiation”.

For Penicillin, the “MIC 50%” value (P. acnes; P. acnes) was at most 0.03 µg/mL, the “MIC 90%” value (P. acnes; P. acnes (51 species)) was 0.06 µg/mL and the “MIC Range” value (P. acnes; P. acnes (51 species)) was ≤0.03-1^ μg/ml.
